Results: ChEMBL document CHEMBL1201862, “PubChem BioAssay data set” (2004)
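Exposure lasted 48 hours, with cells grown in 96-well plates and compounds tested at five concentrations. Here, GI50 denotes the concentration required for 50% inhibition of growth.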 Active and inactive are the calls of the source. Cut-off read from the data, not from the text of the source: active = GI50 up to about 1.1 µM and inactive = higher.

Key:
Test in all cases: DTP human tumour cell line panel, 48 h
[1] = tested on: CAKI-1
[2] = tested on: EKVX
[3] = tested on: HT-29
[4] = tested on: IGROV-1
[5] = tested on: K562
[6] = tested on: LOX IMVI
[7] = tested on: MCF7
[8] = tested on: MDA-N
[9] = tested on: NCI-H23
[10] = tested on: NCI-H460
[11] = tested on: NCI/ADR-RES
[12] = tested on: OVCAR-8
[13] = tested on: SF-539
[14] = tested on: SK-MEL-2
[15] = tested on: SK-MEL-5
[16] = tested on: SNB-19
[17] = tested on: T47D
[18] = tested on: TK-10
[19] = tested on: U-251
[20] = tested on: UO-31

Row | Structure (SMILES) | GI50 [1] | GI50 [2] | GI50 [3] | GI50 [4] | GI50 [5] | GI50 [6] | GI50 [7] | GI50 [8] | GI50 [9] | GI50 [10] | GI50 [11] | GI50 [12] | GI50 [13] | GI50 [14] | GI50 [15] | GI50 [16] | GI50 [17] | GI50 [18] | GI50 [19] | GI50 [20]
1 | CN(C)c1ccc(C(=NNC(=O)c2cc3ccccc3[nH]2)c2ccc(N(C)C)cc2)cc1 | 0.971 µM (active) | 1.85 µM (inactive) | 0.195 µM (active) | 0.395 µM (active) | 0.0792 µM (active) | 0.811 µM (active) | 0.245 µM (active) | 0.0388 µM (active) | 0.912 µM (active) | 0.348 µM (active) | 0.177 µM (active) | 0.608 µM (active) | 0.573 µM (active) | 0.171 µM (active) | 0.407 µM (active) | 0.625 µM (active) | > 23.8 µM (inactive) | 4.56 µM (inactive) | 0.348 µM (active) | 0.942 µM (active)
2 | Cc1cc2c(c(C(=O)NCC(=O)O)c1)Oc1c(cc(C)cc1C(=O)NCC(=O)O)S2 | > 100 µM (inactive) | > 100 µM (inactive) | > 100 µM (inactive) | > 100 µM (inactive) | > 100 µM (inactive) | > 100 µM (inactive) | > 100 µM (inactive) | > 100 µM (inactive) | > 100 µM (inactive) | – | > 100 µM (inactive) | > 100 µM (inactive) | > 100 µM (inactive) | > 100 µM (inactive) | – | > 100 µM (inactive) | > 100 µM (inactive) | > 100 µM (inactive) | > 100 µM (inactive) | –
3 | COc1ccc(NC(=O)CC(=O)n2nc(C)c(/N=N/c3cccc(C)c3)c2C)cc1 | > 100 µM (inactive) | 31.4 µM (inactive) | > 100 µM (inactive) | – | – | > 100 µM (inactive) | > 100 µM (inactive) | > 100 µM (inactive) | > 100 µM (inactive) | > 100 µM (inactive) | > 100 µM (inactive) | > 100 µM (inactive) | > 100 µM (inactive) | > 100 µM (inactive) | > 100 µM (inactive) | > 100 µM (inactive) | > 100 µM (inactive) | > 100 µM (inactive) | 54.1 µM (inactive) | > 100 µM (inactive)
4 | C=C(C)CCN(C(=O)OC(C)(C)C)c1cc(C(C)C)co1 | > 100 µM (inactive) | 45.1 µM (inactive) | 45.3 µM (inactive) | > 100 µM (inactive) | 34.5 µM (inactive) | 28 µM (inactive) | 40.4 µM (inactive) | 95.7 µM (inactive) | 54 µM (inactive) | – | 24.2 µM (inactive) | 37.5 µM (inactive) | > 100 µM (inactive) | 28.5 µM (inactive) | 44.3 µM (inactive) | > 100 µM (inactive) | 24.8 µM (inactive) | > 100 µM (inactive) | 26.7 µM (inactive) | > 100 µM (inactive)
5 | COc1cccc2c1C(=O)c1c(O)c3c(c(O)c1C2=O)C[C@@](O)(C(C)=O)CC3OC1CC(OC2CC(N)C(O)C(C)O2)C(O)C(C)O1 (some centres not stated) | > 100 µM (inactive) | > 100 µM (inactive) | 39.5 µM (inactive) | 31.4 µM (inactive) | 19.6 µM (inactive) | 18.4 µM (inactive) | 7.66 µM (inactive) | 68.1 µM (inactive) | 34.9 µM (inactive) | 14.6 µM (inactive) | > 100 µM (inactive) | 57.9 µM (inactive) | 25.1 µM (inactive) | 67.6 µM (inactive) | 35.7 µM (inactive) | 21.1 µM (inactive) | 37.9 µM (inactive) | > 100 µM (inactive) | 23.9 µM (inactive) | 45.5 µM (inactive)
6 | O=Cc1cc2c(o1)C(=O)c1ccccc1C2=O | 2.84 µM (inactive) | 2.58 µM (inactive) | 0.581 µM (active) | 1.33 µM (inactive) | 1.46 µM (inactive) | 0.267 µM (active) | 0.213 µM (active) | 0.192 µM (active) | 0.191 µM (active) | 0.794 µM (active) | 1.81 µM (inactive) | 1.26 µM (inactive) | 0.427 µM (active) | 0.601 µM (active) | 0.233 µM (active) | 0.656 µM (active) | 1.72 µM (inactive) | 2.7 µM (inactive) | 0.851 µM (active) | 1.42 µM (inactive)
7 | O=C1Cc2c([nH]c3ccc(C(=O)O)cc23)-c2ccccc2N1 | > 100 µM (inactive) | – | 84.9 µM (inactive) | > 100 µM (inactive) | > 100 µM (inactive) | > 100 µM (inactive) | > 100 µM (inactive) | > 100 µM (inactive) | > 100 µM (inactive) | > 100 µM (inactive) | > 100 µM (inactive) | > 100 µM (inactive) | > 100 µM (inactive) | > 100 µM (inactive) | – | > 100 µM (inactive) | > 100 µM (inactive) | > 100 µM (inactive) | > 100 µM (inactive) | > 100 µM (inactive)
